# Laboratory results as given in patent publication EP1388586A2, “Identification of broadly reactive DR restricted epitopes” (priority 1998, dated 1999).
# Like-named read-outs stand apart in the source and are kept apart here. Square brackets hold non-standard residues; d marks the D form. Ends that are not written are not given here. Peptide text beside a SMILES is read from it.
# Key:
# DRB1*0101 (DR1) = target: T1, DRB1*0101 (DR1) (Homo sapiens, UniProt P01903+P01911, A100R/D57E/F55L/F60I/F76Y/I96L/L162R/M171V/P40L/Q125E/R42F/V115G/Y59C); test: Class II peptide-binding assay, DR1;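 also: competition assay: unlabeled test peptides inhibit binding of a radiolabeled probe peptide to purified DR, with half-maximal inhibition taken as an approximate dissociation constant Kd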
# T1 construct: used as sources of human HLA class II molecules; endogenous in cells; host or cells: LG2 (EBV-transformed homozygous B cell line)
# DRB5*0101 (DR2w2a) = target: T2, DRB5*0101 (DR2w2a) (Homo sapiens, UniProt P01903+Q30154); test: Class II peptide-binding assay, DR2w2a (DR2w2B2);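 also: competitive binding assay: unlabeled peptide inhibiting binding of a radiolabeled probe peptide to purified DR molecules at pH 7.0, IC50 approximating Kd, lower means stronger binding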
# T2 construct: used as sources of human HLA class II molecules; endogenous in cells; host or cells: GM3107 (EBV-transformed homozygous B cell line)
# Method: (§1) Class II peptide-binding assays. […] These assays were chosen as to be representative of the most common DR alleles.
# (§2) Radiolabeled peptides were iodinated using the chloramine-T method. […] In appropriate stoichiometric conditions, the IC50 of an unlabeled test peptide to the purified DR is a reasonable approximation of the affinity of interaction (Kd). Peptides were tested in two to four completely independent experiments. […] Final detergent concentration in the incubation mixture was 0.05% Nonidet P-40. Assays were performed at pH 7.0 with the exception of DR3, which was performed at pH 4.5, and DRw53, which was performed at pH 5.0.
# (§3) All subsequent inhibition and direct binding assays were the performed using these class II concentrations.
# DRB1*0401 (DR4w4) = target: T3, DRB1*0401 (DR4w4) (Homo sapiens, UniProt P01903+P01911, A100K/A169T/F76Y/I96L/K127E/L162R/M171V/N62H/P40V/Q125Y/R42H/S133A/S149N/S66Y/V115G/V209L/W38E); test: Class II peptide-binding assay, DR4w4;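 also: unlabeled test peptides compete with a radiolabeled probe peptide for binding to affinity-purified HLA-DR, with DR amount titrated to capture a small fraction of label, IC50 approximating Kd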
# T3 construct: used as sources of human HLA class II molecules; endogenous in cells; host or cells: PREISS (EBV-transformed homozygous B cell line)
# DRB10404 (DR4w14) = target: T4, DRB10404 (DR4w14) (Homo sapiens, UniProt P01903+P01911, A100R/A169T/F76Y/I96L/K127E/L162R/M171V/N62H/P40V/Q125Y/R42H/S133A/S149N/S66Y/V209L/W38E); test: Class II peptide-binding assay, DR4w14;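 also: unlabeled peptides compete with a radiolabeled probe for binding to affinity-purified HLA-DR, neutral pH, class II amount titrated to bind a small fraction of label, IC50 approximates Kd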
# T4 construct: used as sources of human HLA class II molecules; endogenous in cells; host or cells: BIN40 (EBV-transformed homozygous B cell line)
# DRB1*1101 (DR5w11) = target: T5, DRB1*1101 (DR5w11) (Homo sapiens, UniProt P01903+P01911, A100R/A169T/A87E/I96F/K41T/L162R/M171V/P40S/Q125H/Q178H/Q39Y/Q99D/R42S/S66Y/T262R/V115G/W38E); test: Class II peptide-binding assay, DR5w11;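 also: competition by unlabeled test peptide against iodinated probe peptide binding to affinity-purified HLA-DR, class II amount titrated beforehand, half-maximal inhibitory concentration read as approximate Kd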
# T5 construct: used as sources of human HLA class II molecules; endogenous in cells; host or cells: SWEIG (EBV-transformed homozygous B cell line)
# T5 sequence (P01903 26-254, other chains not shown): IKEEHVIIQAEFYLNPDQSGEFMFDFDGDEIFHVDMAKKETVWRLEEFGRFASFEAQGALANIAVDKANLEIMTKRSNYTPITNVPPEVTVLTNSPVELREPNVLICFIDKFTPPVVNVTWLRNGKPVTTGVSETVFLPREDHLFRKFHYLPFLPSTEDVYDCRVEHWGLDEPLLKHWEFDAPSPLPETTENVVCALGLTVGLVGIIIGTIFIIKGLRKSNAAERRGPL
# Method: as §1, §2, §3
# DRB1*0701 (DR7) = DRB1*0701 (DR7) (Homo sapiens, UniProt P01903+P01911, A100R/A102G/A103Q/D57E/D86V/E43K/F76Y/K127E/L162R/M171V/P40G/Q125H/Q99D/R33Q/R42Y/R54Q/S133A/S66F/T210M/V115G/Y107V/Y59L/Y89S); test: Class II peptide-binding assay, DR7;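 also: unlabeled peptides compete with an iodinated probe peptide for binding to affinity-purified HLA-DR at neutral pH, DR amount titered to bind a small tracer fraction, IC50 approximating Kd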
# Method: as §1, §2, §3
# [1] = read-out: DR1 nM, Table VIII, In IC50 Format
# [2] = read-out: DR2w2B2 nM, Table VIII, In IC50 Format
# [3] = read-out: DR4w4 nM, Table VIII, In IC50 Format
# [4] = read-out: DR4w14 nM, Table VIII, In IC50 Format
# [5] = read-out: DR5w11 nM, Table VIII, In IC50 Format
# [6] = read-out: DR7 nM, Table VIII, In IC50 Format
# [7] = read-out: DR1 nM (In IC50 Format), purified HLA DR1
# [8] = read-out: DR2w2B2 nM (In IC50 Format), purified HLA DR2w2β2
# [9] = read-out: DR4w4 nM (In IC50 Format), purified HLA DR4w4
# [10] = read-out: DR4w14 nM (In IC50 Format), purified HLA DR4w14
# [11] = read-out: DR5w11 nM (In IC50 Format), purified HLA DR5w11
# [12] = read-out: DR7 nM (In IC50 Format), purified HLA DR7
Compound,IC50 (DRB1*0101 (DR1); [1]),IC50 (DRB5*0101 (DR2w2a); [2]),IC50 (DRB1*0401 (DR4w4); [3]),IC50 (DRB10404 (DR4w14); [4]),IC50 (DRB1*1101 (DR5w11); [5]),IC50 (DRB1*0701 (DR7); [6]),IC50 (DRB1*0101 (DR1); [7]),IC50 (DRB5*0101 (DR2w2a); [8]),IC50 (DRB1*0401 (DR4w4); [9]),IC50 (DRB10404 (DR4w14); [10]),IC50 (DRB1*1101 (DR5w11); [11]),IC50 (DRB1*0701 (DR7); [12])
C[C@H](NC(=O)[C@H](N)Cc1ccc(O)cc1)C(=O)N[C@@H](C)C(=O)N[C@@H](Cc1ccccc1)C(=O)N[C@@H](C)C(=O)N[C@@H](C)C(=O)N[C@@H](C)C(=O)N[C@@H](C)C(=O)N[C@H](C(=O)N[C@@H](CCCCN)C(=O)N[C@@H](C)C(=O)N[C@@H](C)C(=O)N[C@@H](C)C(=O)N[C@H](C)C(N)=O)[C@@H](C)O [Peptide 828.10] (H-[dY]AAFAAAATKAAA[dA]-NH2),1.9 nM,19.8 nM,3.4 nM,111 nM,22.2 nM,1250 nM,–,–,–,–,–,–
CC(C)C[C@H](NC(=O)[C@@H](NC(=O)[C@@H](NC(=O)[C@H](CCC(N)=O)NC(=O)[C@H](CCCNC(=N)N)NC(=O)[C@H](CCC(N)=O)NC(=O)[C@H](Cc1ccccc1)NC(=O)[C@H](C)NC(=O)[C@H](C)NC(=O)[C@H](N)Cc1ccc(O)cc1)[C@@H](C)O)[C@@H](C)O)C(=O)N[C@@H](CCCCN)C(=O)N[C@@H](C)C(=O)N[C@@H](C)C(=O)N[C@H](C)C(N)=O [Peptide 781.16] (H-[dY]AAFQRQTTLKAA[dA]-NH2),–,–,–,–,–,–,3 nM,155 nM,3.8 nM,7 nM,10 nM,2780 nM
YARFASQTTLKAKT-NH2 [Peptide 782.02],–,–,–,–,–,–,3.6 nM,191 nM,2.5 nM,14.7 nM,25.7 nM,6250 nM
YAKFQSQTTLKAKT-NH2 [Peptide 717.40],–,–,–,–,–,–,8.8 nM,167 nM,4.9 nM,14.3 nM,8.7 nM,3570 nM
Ac-AFAAAATLKA-NH2 [Peptide 770.02],–,–,–,–,–,–,35.7 nM,132 nM,21.4 nM,102 nM,104 nM,325 nM
YARFQSQTTLKAAT-NH2 [Peptide 717.49],–,–,–,–,–,–,2.1 nM,118 nM,6.6 nM,7.1 nM,6.3 nM,4170 nM
CC[C@H](C)[C@H](NC(=O)[C@H](C)NC(=O)CNC(=O)[C@H](Cc1ccccc1)NC(=O)[C@H](CC(N)=O)NC(=O)[C@H](CC(N)=O)NC(=O)[C@H](N)CO)C(=O)N[C@@H](CC(C)C)C(=O)N[C@@H](CO)C(=O)N[C@@H](CO)C(=O)N[C@H](C(=O)N[C@@H](CC(N)=O)C(=O)N[C@H](C(=O)NCC(N)=O)C(C)C)[C@@H](C)O [Peptide 735.05] (H-[dS]NNFGAILSSTNVG-NH2),–,–,–,–,–,–,48.5 nM,2860 nM,273 nM,376 nM,20000 nM,12500 nM
YARFQSQTTAKAKT-NH2 [Peptide 717.51],–,–,–,–,–,–,3.3 nM,66.7 nM,6.1 nM,13.2 nM,38.8 nM,6250 nM
YARFQSQTTLKAKT [Peptide 717.67],–,–,–,–,–,–,3.6 nM,167 nM,6 nM,11.1 nM,7.4 nM,1390 nM
YARAQSQTTLKAKT-NH2 [Peptide 717.29],–,–,–,–,–,–,556 nM,1820 nM,30 nM,41.7 nM,20000 nM,3570 nM
YARFQSQTALKAKT-NH2 [Peptide 717.52],–,–,–,–,–,–,2.2 nM,15.4 nM,4.6 nM,31.3 nM,33.3 nM,1140 nM
C[C@H](NC(=O)[C@H](N)Cc1ccc(O)cc1)C(=O)N[C@@H](C)C(=O)N[C@@H](Cc1ccccc1)C(=O)N[C@@H](C)C(=O)N[C@@H](C)C(=O)N[C@@H](C)C(=O)N[C@@H](C)C(=O)N1CCC[C@H]1C(=O)N[C@@H](CCCCN)C(=O)N[C@@H](C)C(=O)N[C@@H](C)C(=O)N[C@@H](C)C(=O)N[C@H](C)C(N)=O [Peptide 828.06] (H-[dY]AAFAAAAPKAAA[dA]-NH2),2 nM,19 nM,214 nM,10000 nM,235 nM,1920 nM,–,–,–,–,–,–
YARFQSQTTIKAKT-NH2 [Peptide 717.19],–,–,–,–,–,–,5.7 nM,143 nM,3.2 nM,19.2 nM,30.3 nM,2080 nM
